Data taken from US8865763B2, “Methods and compositions for altering cell function” (Alltech, Inc., priority 2005, dated 2014).

Tests used:
Gst zeta 1 (Gstz1) = experiment: Microarray gene expression, mouse cerebral cortex: Gstz1; assay type: in vivo; details: diet 1 ppm Se, vs Se-deficient animals, * significant
Source text: (§1) Animal Care. Male C57BL/6J mice were housed singly and started on the experimental diets described below immediately after weaning (21 days of age). The mice were maintained in the Shared Aging Rodent Facility at the William S. Middleton Memorial Veterans Administration Medical Center (Madison, Wis.). Temperature and humidity were maintained at constant levels. Room light was controlled to provide 12-hr cycles of light and dark.
(§2) Experimental diets were created by Harlan Teklad (Madison, Wis.). Selenium content of the diets was determined by Covance Inc. (Madison, Wis.). Five (5) animals were included in each of the following treatment groups: a diet deficient in selenium (SD); a diet supplemented with selenomethionine (SM, obtained from Sigma, St. Louis, Mo.) such that the final selenium content of the diet was one (1) part per million; a diet supplemented with sodium selenite (SS, Sigma) such that the final concentration of selenium in this diet was one (1) part per million; or a diet supplemented with the yeast selenium SEL-PLEX (SP, Alltech, Lexington, Ky.), such that the final concentration of selenium in this diet was one (1) part per million. SEL-PLEX. […]
(§3) Tissue sample preparation and microarray analysis. […] For intestinal expression studies, the intestine was flushed twice with saline solution and small intestine was measured and divided in three equal segments. […]

Nicastrin = experiment: Microarray gene expression, mouse cerebral cortex: Nicastrin; assay type: in vivo; details: diet 1 ppm Se, vs Se-deficient animals, * P < 0.01
Source text: as §1, §2, §3

[1] = tested on: Amyloid beta (A4) precursor-like protein (Aplp 1); experiment: Microarray gene expression, mouse cerebral cortex: Aplp 1; assay type: in vivo; details: diet 1 ppm Se, vs Se-deficient animals, * P < 0.01
Source text: as §1, §2, §3

Selenoprotein W (SelW) = experiment: Microarray gene expression, mouse intestine: SelW; assay type: in vivo; details: diet 1 ppm Se, vs selenium deficient
Source text: as §1, §2, §3

Junb = experiment: Microarray gene expression, mouse cerebral cortex: Junb; assay type: in vivo; details: diet 1 ppm Se, vs Se-deficient animals, * significant
Source text: as §1, §2, §3

[2] = tested on: Glutathione S-transferase, theta 2 (Gstt2); experiment: Microarray gene expression, mouse intestine: Gstt2; assay type: in vivo; details: diet 1 ppm Se, vs Se-deficient diets, negative = down
Source text: as §1, §2, §3

[3] = tested on: Amyloid beta (A4) precursor protein-binding, family A, member 1(Apba1); experiment: Microarray gene expression, mouse cerebral cortex: Apba1; assay type: in vivo; details: diet 1 ppm Se, vs Se-deficient animals, * P < 0.01
Source text: as §1, §2, §3

[4] = tested on: Glutathione S-transferase, mu2 (Gstm2); experiment: Microarray gene expression, mouse intestine: Gstm2; assay type: in vivo; details: diet 1 ppm Se, vs Se-deficient diets, negative = down
Source text: as §1, §2, §3

[5] = tested on: Complement component 1, r subcomponent, C1r; experiment: Microarray gene expression, mouse cerebral cortex: C1r; assay type: in vivo; details: diet 1 ppm Se, vs selenium deficient, * p<0.01
Source text: as §1, §2, §3

[6] = tested on: Complement component 1, q subcomponent, beta polypeptide, C1qbp; experiment: Microarray gene expression, mouse cerebral cortex: C1q beta polypeptide; assay type: in vivo; details: diet 1 ppm Se, vs selenium deficient, * p<0.01
Source text: as §1, §2, §3

[7] = tested on: Glutathione S-transferase, alpha 3 (Gsta3); experiment: Microarray gene expression, mouse intestine: Gsta3; assay type: in vivo; details: diet 1 ppm Se, vs Se-deficient diets, negative = down
Source text: as §1, §2, §3

Cathepsin O = experiment: Microarray gene expression, mouse cerebral cortex: Cathepsin O; assay type: in vivo; details: diet 1 ppm Se, vs Se-deficient mice, * significant
Source text: as §1, §2, §3

Thioredoxin Reductase 1 = experiment: Microarray gene expression, mouse intestine: Thioredoxin Reductase 1; assay type: in vivo; details: diet 1 ppm Se, vs selenium deficient, p <0.01
Source text: as §1, §2, §3

Gadd45b = experiment: Microarray gene expression, mouse cerebral cortex: Gadd45b; assay type: in vivo; details: diet 1 ppm Se, vs Se-deficient animals, * significant
Source text: as §1, §2, §3

[8] = tested on: Glutathione S-transferase, mu1 (Gstm1); experiment: Microarray gene expression, mouse intestine: Gstm1; assay type: in vivo; details: diet 1 ppm Se, vs Se-deficient diets, negative = down
Source text: as §1, §2, §3

SOD1 = experiment: Microarray gene expression, mouse intestine: SOD1; assay type: in vivo; details: diet 1 ppm Se, vs selenium deficient
Source text: as §1, §2, §3

[9] = tested on: Complement component 1, q subcomponent, gamma polypeptide, C1qg; experiment: Microarray gene expression, mouse cerebral cortex: C1qg; assay type: in vivo; details: diet 1 ppm Se, vs selenium deficient, * p<0.01
Source text: as §1, §2, §3

[10] = tested on: Gadd45g1p (Growth arrest and DNA-damage inducible 45 gamma interacting protein); experiment: Microarray gene expression, mouse cerebral cortex: Gadd45g1p; assay type: in vivo; details: diet 1 ppm Se, vs Se-deficient animals, * significant
Source text: as §1, §2, §3

Cathepsin B = experiment: Microarray gene expression, mouse cerebral cortex: Cathepsin B; assay type: in vivo; details: diet 1 ppm Se, vs Se-deficient mice, * significant
Source text: as §1, §2, §3

[11] = tested on: Complement component 1, q subcomponent, alpha polypeptide, C1qa; experiment: Microarray gene expression, mouse cerebral cortex: C1qa; assay type: in vivo; details: diet 1 ppm Se, vs selenium deficient, * p<0.01
Source text: as §1, §2, §3

Glutathione Peroxidase 3 = experiment: Microarray gene expression, mouse intestine: Glutathione Peroxidase 3; assay type: in vivo; details: diet 1 ppm Se, vs selenium deficient, all p < 0.01
Source text: as §1, §2, §3

[12] = Body weight of mice on selenium diets; assay type: in vivo, mouse; details: diet 1 ppm Se vs selenium deficient diet; FIG. 1
Source text: as §1
Experimental diets were created by Harlan Teklad (Madison, Wis.). Selenium content of the diets was determined by Covance Inc. (Madison, Wis.). […]
Thus, it was an object of the present invention to determine whether compositions and methods of the present invention could alter the expression levels (e.g., mRNA levels) of various genes. One group of genes analyzed were genes classically associated with selenium. As described above, the expression levels of genes were analyzed between mice with and without dietary selenium, or, between mice fed different sources of selenium) (See, e.g., Table 1, below).

[13] = tested on: Growth arrest and DNA-damage-inducible 45 gamma (Gadd45g); experiment: Microarray gene expression, mouse intestine: Gadd45g; assay type: in vivo; details: diet 1 ppm Se, vs selenium deficient, negative = down, listed as SS
Source text: as §1
Experimental diets were created by Harlan Teklad (Madison, Wis.). Selenium content of the diets was determined by Covance Inc. (Madison, Wis.). Five (5) animals were included in each of the following treatment groups: a diet deficient in selenium (SD); a diet supplemented with selenomethionine (SM, obtained from Sigma, St. Louis, Mo.) such that the final selenium content of the diet was one (1) part per million; a diet supplemented with sodium selenite (SS, Sigma) such that the final concentration of selenium in this diet was one (1) part per million; or a diet supplemented with the yeast selenium SEL-PLEX (SP, Alltech, Lexington, Ky.), such that the final concentration of selenium in this diet was one (1) part per million. SEL-PLEX. Mice were provided with water and their respective diet ad libitum for 100 days. Diets were stored at the dark at 4° C. and fresh diet was added to feeder twice weekly.
Tissue sample preparation and microarray analysis. Mice were killed at 100 days of age by cervical dislocation. For intestinal expression studies, the intestine was flushed twice with saline solution and small intestine was measured and divided in three equal segments. A 3-cm region of the middle segment of the small intestine corresponding to the jejunum (˜300 mg of tissue) was cut and rinsed again with physiological saline to completely remove contents, flash frozen in liquid nitrogen and stored at −80° C. For brain (e.g., cerebral cortex) studies, the cerebral cortex was separated from the surrounding brain tissue and was flash frozen in liquid nitrogen and stored at −80° C. […]

[14] = tested on: Cu chaperone for SOD (CCS); experiment: Microarray gene expression, mouse intestine: CCS; assay type: in vivo; details: diet 1 ppm Se, vs selenium deficient
Source text: as §1, §2, §3

[15] = tested on: Complement component 1, q subcomponent binding protein, C1qbp; experiment: Microarray gene expression, mouse cerebral cortex: C1qbp; assay type: in vivo; details: diet 1 ppm Se, vs selenium deficient, * p<0.01
Source text: as §1, §2, §3

[16] = tested on: Amyloid beta (A4) precursor protein-binding, family B, member 1 (Apbb1 or Fe65); experiment: Microarray gene expression, mouse cerebral cortex: Apbb1/Fe65; assay type: in vivo; details: diet 1 ppm Se, vs Se-deficient animals, * P < 0.01
Source text: as §1, §2, §3

Glutathione Peroxidase 1 = experiment: Microarray gene expression, mouse intestine: Glutathione Peroxidase 1; assay type: in vivo; details: diet 1 ppm Se, vs selenium deficient, all p < 0.01
Source text: as §1, §2, §3

Gst pi 1 (Gstp1) = experiment: Microarray gene expression, mouse cerebral cortex: Gstp1; assay type: in vivo; details: diet 1 ppm Se, vs Se-deficient animals, * significant
Source text: as §1, §2, §3

Gst mu 7 (Gstm7) = experiment: Microarray gene expression, mouse cerebral cortex: Gstm7; assay type: in vivo; details: diet 1 ppm Se, vs Se-deficient animals, * significant
Source text: as §1, §2, §3

Presenilin 1 = experiment: Microarray gene expression, mouse cerebral cortex: Presenilin 1; assay type: in vivo; details: diet 1 ppm Se, vs Se-deficient animals, * P < 0.01
Source text: as §1, §2, §3

[17] = tested on: Glutathione S-transferase, mu3 (Gstm3); experiment: Microarray gene expression, mouse intestine: Gstm3; assay type: in vivo; details: diet 1 ppm Se, vs Se-deficient diets, negative = down
Source text: as §1, §2, §3

[18] = tested on: Type 1 iodothyronine deiodinase; experiment: Microarray gene expression, mouse intestine: Type 1 iodothyronine deiodinase; assay type: in vivo; details: diet 1 ppm Se, vs selenium deficient
Source text: as §1, §2, §3

Cathepsin Z = experiment: Microarray gene expression, mouse cerebral cortex: Cathepsin Z; assay type: in vivo; details: diet 1 ppm Se, vs Se-deficient mice, * significant
Source text: as §1, §2, §3

SelR (Selenoprotein X1) = experiment: Microarray gene expression, mouse intestine: SelR; assay type: in vivo; details: diet 1 ppm Se, vs selenium deficient
Source text: as §1, §2, §3

Cathepsin D = experiment: Microarray gene expression, mouse cerebral cortex: Cathepsin D; assay type: in vivo; details: diet 1 ppm Se, vs Se-deficient mice, * significant
Source text: as §1, §2, §3

O=[Se](O)O [Sod-sel, sodium selenite]
FC (fold change) expression of Gstz1 (Gst zeta 1 (Gstz1)): −1.3 fold
FC (fold change) expression of Nicastrin (Nicastrin): −1.67* fold
FC (fold change) expression of Aplp 1 [1]: −1.55* fold
expression of Selenoprotein W (SelW), fold upregulated (Selenoprotein W (SelW)): 5.1 fold
FC (fold change) expression of Junb (Junb): −1.59 fold
FC (fold change) expression of Gstt2 [2]: −1.3 fold
FC (fold change) expression of Apba1 [3]: −1.41 fold
FC (fold change) expression of Gstm2 [4]: −2.1 fold
FC (fold change) expression of C1r [5]: −1.29 fold
FC (fold change) expression of complement component 1, q subcomponent, beta polypeptide [6]: −1.35 fold
FC (fold change) expression of Gsta3 [7]: −2.3 fold
FC (fold change) expression of Cathepsin O (Cathepsin O): −1.18 fold
fold increase in expression of the Thioredoxin Reductase 1 gene (Thioredoxin Reductase 1): 1.7 fold
FC (fold change) expression of Gadd45b in brain (Gadd45b): −1.39* fold
FC (fold change) expression of Gstm1 [8]: −2.4 fold
enhanced expression of SOD1, fold (SOD1): 1.92 fold
FC (fold change) expression of C1qg [9]: −1.07 fold
FC (fold change) expression of Gadd45g1p in brain [10]: −1.12 fold
FC (fold change) expression of Cathepsin B (Cathepsin B): −1.13* fold
FC (fold change) expression of C1qa [11]: −1.18 fold
fold change in expression of Glutathione Peroxidase 3 (Glutathione Peroxidase 3): 3.5 fold
body weights of mice [12]: No significant differences
FC (fold change) expression of Gadd45g [13]: −2.0 fold
enhancement in expression of the Cu chaperone for SOD (CCS), fold [14]: 1.28 fold
FC (fold change) expression of C1qbp [15]: 1.11 fold
FC (fold change) expression of Apbb1 (Fe65) [16]: −1.32* fold
fold change in expression of Glutathione Peroxidase 1 (Glutathione Peroxidase 1): 4.1 fold
FC (fold change) expression of Gstp1 (Gst pi 1 (Gstp1)): 1.02 fold
FC (fold change) expression of Gstm7 (Gst mu 7 (Gstm7)): −1.25* fold
FC (fold change) expression of Presenilin 1 (Presenilin 1): −1.11 fold
FC (fold change) expression of Gstm3 [17]: −2.7 fold
fold increase of expression level of Type 1 iodothyronine deiodinase [18]: 2.8 fold
FC (fold change) expression of Cathepsin Z (Cathepsin Z): −1.30* fold
expression of SelR, fold upregulated (SelR (Selenoprotein X1)): 1.3 fold
FC (fold change) expression of Cathepsin D (Cathepsin D): −1.24* fold
